The source of these data is US20240075036A1, “THERAPEUTIC COMBINATIONS INCLUDING INHIBITORS OF THE P2X4 RECEPTOR FOR TREATING AND PREVENTING PROLIFERATIVE DISORDERS” (CHEMOTHERAPEUTISCHES FORSCHUNGSINSTITUT GEORG-SPEYER-HAUS, priority 2021, published 2024).

Structures are written as SMILES.

In series [1] the test system is S6 ribosomal protein phosphorylation (mTOR signaling). The experiment in a line: Immunoblot analysis of survival pathways / S6 phosphorylation in AOM/DSS tumor organoids. The series is classed as cell-based, mice. The note with it: ATP (100 μM) in presence of inhibitor; AOM/DSS tumor organoids. In general terms: Immunoblotting shows a protein as a band on a membrane.
Method: Data are mean±SD, n=7. *p<0.05 by two-tailed Student's t-test. c, Immunoblot analysis of Lgr5EGFP-DTR(−) tumor organoids treated with ATP (100 μM), 2MeS ADP (100 μM) and adenosine (100 μM) for 30 min. […] Data are mean±SD, n=4 replicates. […] Data are mean±SD, n=3 replicates. One representative of three experiment performed is shown. n.s. p>0,05, *p<0.05***, p<0.001, ****p<0.0001 by 1-way ANOVA with Bonferroni's multiple comparison test. 1, Immunoblot analysis of doxycycline inducible P2x4 knockdown APTAK colon tumor organoids treated with 5-FU (20 μM). Organoids were cultured in medium−/+doxycycline prior to the experiment. […] Organoids were cultured in medium−/+doxycycline prior to the experiment. […] Data are mean±SD, n=3.
In vitro Lgr5+ cells ablation experiments, organoids were treated with 20 ng/ml DT (Millipore, #322326) in the culture medium. For human LGR5+ cells ablation, we treated LGR5-iCT organoids with 500 nM BB homodimerizer. Other treatments were performed as described in each figure legends.

Another series concerns APTAK tumor organoids. The experiment in a line: APTAK tumor organoids: S6 phosphorylation and organoid survival. The class given is cell-based, mice. As to conditions: P2x4 inhibitor in combination with 5-FU compared to each treatment alone.
Series [2] relates to AOM/DSSATKN tumor organoids. The note with it: P2x4 inhibitor in combination with 5-FU (20 μM) compared to each treatment alone; AOM/DSS tumor organoids.
From the text: Percentage of reseeding capacity compared to vehicle treated organoids is indicated. Data are mean±SD, n=4 replicates. […] Percentage of reseeding capacity compared to vehicle treated organoids is indicated.
The subject of series [3] is patient-derived tumor organoids (PDTO) from pancreatic ductal adenocarcinoma. The note with it: P2X4 inhibitor 5-BDBD combined with 5-FU.
Another series has as its target T1, rat P2X4 receptor (Rattus norvegicus, UniProt P51577).
T1 sequence (P51577 1-388): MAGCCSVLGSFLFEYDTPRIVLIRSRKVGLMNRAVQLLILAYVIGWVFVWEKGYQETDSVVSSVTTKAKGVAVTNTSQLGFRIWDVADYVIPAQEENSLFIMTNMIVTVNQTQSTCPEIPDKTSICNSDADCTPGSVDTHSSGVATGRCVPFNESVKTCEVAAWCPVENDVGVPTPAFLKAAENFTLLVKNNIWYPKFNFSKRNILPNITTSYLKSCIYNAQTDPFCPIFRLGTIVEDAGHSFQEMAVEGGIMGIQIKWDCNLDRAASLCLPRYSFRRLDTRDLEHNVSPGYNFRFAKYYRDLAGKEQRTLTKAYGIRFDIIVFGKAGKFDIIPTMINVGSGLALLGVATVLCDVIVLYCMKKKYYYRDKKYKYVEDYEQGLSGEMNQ
As to conditions: cited from earlier work.

A further series relates to PC3 and C4-2B4 cells. As to conditions: selective P2XR4 antagonists; cited from earlier work.
Series [4] has as its system ectopic patient-derived colon tumor. As to conditions: irinotecan and AZD2014 combination; cited from earlier work.
For another series, the system named is SW480 cells. As to conditions: irinotecan and AZD2014 combination; orthotopic implantation; cited from earlier work.
Series [5] relates to advanced colorectal cancer. As to conditions: treatment of advanced colorectal cancer; cited from earlier work.
Series [6] has as its system refractory metastatic colorectal cancer / refractory solid tumors. The note with it: cited from earlier work.
Where [7] appears, read: 24 patients with refractory metastatic colorectal cancer, everolimus combination cohorts.

Method for APTAK tumor organoids: Organoids were cultured in medium−/+doxycycline prior to the experiment. […] Organoids were cultured in medium−/+doxycycline prior to the experiment.
Colon tumor organoids were cultured as previously described (27). AOM/DSS induced colon tumors were harvested by opening the colon longitudinally and dissociated enzymatically for 30-40 min in digestion media containing 1 mg/ml collagenase I (Sigma-Aldrich), 0.5 mg/ml Dispase (Roche), 50 μg/ml DNase (Sigma-Aldrich) in RPMI medium containing 2% FCS. Supernatant was washed and filtered through a 70 μM cell strainer. Cells were then embedded in Matrigel (Corning, #356231) and cultured in Advanced Dulbecco's modified Eagle's medium/F12 (Invitrogen, #12634-028) supplemented with Glutamax (Invitrogen, #35050038), Hepes (Invitrogen, #15630056), Pen/Strep (Invitrogen, #15140122), N2 supplement (Invitrogen, #17502048), B27supplement (Invitrogen, #17504044) and n-Acetylcysteine (Sigma-Aldrich, #A91165). EGF (Invitrogen, #PMG8045), RspoI and noggin were added as niche factor.

As to `O=C1CN=C(c2cccc(Br)c2)c2oc3ccccc3c2N1` [5-BDBD, 5-(3-bromophenyl)-1,3-dihydro-2H-benzofuro[3,2-e]-1,4-diazepin-2-one], the “ATP induced phosphorylation of S6” value in series [1] is listed as “reduced phosphorylation of S6 by ATP”. Also, the organoid survival entry (with APTAK tumor organoids; in series [2]) was “decreased organoid survival” each time. In addition, the tumor organoid survival entry in series [3] is “sensitizes tumor organoids to 5-FU administration and leads to reduced tumor organoid survival”. Besides, the “antagonist action on ATP-induced currents” value at rat P2X4 receptor was “specific P2X4R antagonist”. For the same molecule, the “growth, mobility and apoptosis of PCa cells” value in the series on PC3 and C4-2B4 cells was “impaired the growth and mobility of PCa cells but not apoptosis”.

For `CNC(=O)c1cccc(-c2ccc3c(N4CCOC[C@@H]4C)nc(N4CCOC[C@@H]4C)nc3n2)c1` [AZD2014], the tumor growth result in series [4] is listed as “drastically reduced ectopic patient-derived colon tumor growth”. Besides, in the series with SW480 cells, the “liver and lung metastases” value is “totally inhibited liver and lung metastases”.

As to `CO[C@H]1C[C@@H]2CC[C@@H](C)[C@@](O)(O2)C(=O)C(=O)N2CCCC[C@H]2C(=O)O[C@H]([C@H](C)C[C@@H]2CC[C@@H](OCCO)[C@H](OC)C2)CC(=O)[C@H](C)/C=C(\C)[C@@H](O)[C@@H](OC)C(=O)[C@H](C)C[C@H](C)/C=C/C=C/C=C/1C` [everolimus], the clinical activity result in [5] was “limited clinical activity”. Also, in series [6] (setting [7]), the “median time on treatment” value is 2.7 months and the “patients remaining on treatment with stable disease for at least 3 months” value is reported as 45%. In addition, the safety and tolerability result in series [6] (everolimus in addition to 5-FU/LV and mFOLFOX6) was “appears safe and tolerable”.
